Assay results reported in the supplement of paper PMC4862054.
“And” between values parts separate entries of the source, which are not always exact repeats. Equal entries are not always repeated.

How the values were obtained:
MFM-223 [1] = assay: normalised viability (% of control), CellTiter-Blue; higher = more viable cells (about 100 = DMSO control); settings: incubation time: 72 h
Method in brief: (§1)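 Each entry is normalised viability at a single listed concentration within a series. It comes from breast cancer cell lines incubated 72 h with compound in 384-well plates, then measured with CellTiter-Blue fluorescence at 560/590 nm. Every plate was normalised between vehicle (100) and a positive kill control (0).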

CAL-85-1 = assay: as above; settings: incubation time: 72 h
Method in brief: as §1

MDA-MB-231 [2] = assay: as above; settings: incubation time: 72 h
Method in brief: as §1

CAL-51 [3] = assay: as above; settings: incubation time: 72 h
Method in brief: as §1

MDA-MB-453 = assay: as above; settings: incubation time: 72 h
Method in brief: as §1

BT-474 = assay: as above; settings: incubation time: 72 h
Method in brief: as §1

DU-4475 [4] = assay: as above; settings: incubation time: 72 h
Method in brief: as §1

HDQ-P1 [5] = assay: as above; settings: incubation time: 72 h
Method in brief: as §1

SK-BR-3 [6] = assay: as above; settings: incubation time: 72 h
Method in brief: as §1

CAL-120 [7] = assay: as above; settings: incubation time: 72 h
Method in brief: as §1

BT-549 = assay: as above; settings: incubation time: 72 h
Method in brief: as §1

MDA-MB-468 = assay: as above; settings: incubation time: 72 h
Method in brief: as §1

HCC1937 = assay: as above; settings: incubation time: 72 h
Method in brief: as §1

CAL-148 = assay: as above; settings: incubation time: 72 h
Method in brief: as §1

HCC1143 [8] = assay: as above; settings: incubation time: 72 h
Method in brief: as §1

HCC1599 = assay: as above; settings: incubation time: 72 h
Method in brief: as §1

MDA-MB-436 = assay: as above; settings: incubation time: 72 h
Method in brief: as §1

MFM-223 [9] = assay: normalised viability (% of control), CellTiter-Blue; higher = more viable cells (100 = DMSO, 0 = benzethonium chloride kill control); settings: 1 nM; incubation time: 72 h
Method in brief: as §1

MDA-MB-231 [10] = assay: as above; settings: 1 nM; incubation time: 72 h
Method in brief: as §1

CAL-51 [11] = assay: as above; settings: 1 nM; incubation time: 72 h
Method in brief: as §1

DU-4475 [12] = assay: as above; settings: 1 nM; incubation time: 72 h
Method in brief: as §1

HDQ-P1 [13] = assay: as above; settings: 1 nM; incubation time: 72 h
Method in brief: as §1

SK-BR-3 [14] = assay: as above; settings: 1 nM; incubation time: 72 h
Method in brief: as §1

Hs578T = assay: as above; settings: 1 nM; incubation time: 72 h
Method in brief: as §1

CAL-120 [15] = assay: as above; settings: 1 nM; incubation time: 72 h
Method in brief: as §1

HCC1143 [16] = assay: as above; settings: 1 nM; incubation time: 72 h
Method in brief: as §1

Cc1c(CN2CCN(C(=O)[C@H](C)O)CC2)sc2c(N3CCOCC3)nc(-c3cnc(N)nc3)nc12 [GDC-0980]
normalised viability [%]
Settings	3 nM	10 nM	30 nM	100 nM	1000 nM	10000 nM
BT-474	–	115	–	–	22.1	12.3
BT-549	–	88.7	–	–	33.3	13.6
CAL-51 [3]	112	–	98.5	71.9	–	–
CAL-85-1	102	–	83.3	89.2	–	–
CAL-120 [7]	–	103	–	–	24.1	13.7
CAL-148	100	–	94.5	87.6	–	–
DU-4475 [4]	102	–	82.1	83.5	–	–
HCC1143 [8]	–	88.7	–	–	33.8	15.6
HCC1599	–	95	–	–	39.7	35.3
HCC1937	–	113	–	–	39.7	26.2
HDQ-P1 [5]	91.9	–	84.3	70.8	–	–
MDA-MB-231 [2]	–	95.6	–	–	27.6	23.6
MDA-MB-436	–	81.2	–	–	44.7	18.2
MDA-MB-453	116	–	77.8	56.1	–	–
MDA-MB-468	–	105	–	–	44.4	10.7
MFM-223 [1]	–	86.1	–	–	18.1	14.2
SK-BR-3 [6]	–	102	–	–	15.9	9.04

Settings	normalised viability [%]
CAL-51 [11]	101
CAL-120 [15]	96.3
DU-4475 [12]	104
HCC1143 [16]	94.9
HDQ-P1 [13]	95.9
Hs578T	102
MDA-MB-231 [10]	96.6
MFM-223 [9]	96.8
SK-BR-3 [14]	92.2

Nc1cccc2c1CN(C1CCC(=O)NC1=O)C2=O (stereo not given) [Lenalidomide]
normalised viability
Settings	3 nM	10 nM	30 nM	100 nM	1000 nM	10000 nM
BT-474	–	104% and 109%	–	–	117% and 107%	117% and 104%
BT-549	–	94.5% and 88.9%	–	–	94.5% and 95.7%	89.3% and 101%
CAL-51 [3]	106% and 108%	–	99.4% and 99.6%	99.9% and 97.6%	–	–
CAL-85-1	82.3% and 93%	–	76.5% and 84.1%	86% and 96.7%	–	–
CAL-120 [7]	–	76% and 81.3%	–	–	80.2% and 81.1%	84.4% and 80.2%
CAL-148	78.6% and 91.8%	–	86% and 94.3%	86.9% and 89.8%	–	–
DU-4475 [4]	92.4% and 107%	–	89.8% and 80.5%	94.3% and 93.8%	–	–
HCC1143 [8]	–	76.4% and 66.6%	–	–	89.1% and 70%	72% and 72.4%
HCC1599	–	82.8% and 82.1%	–	–	91.9% and 86.6%	113% and 103%
HCC1937	–	92.3% and 85.5%	–	–	86.2% and 84.6%	78.2% and 87.7%
HDQ-P1 [5]	95.7% and 91.8%	–	106% and 83.8%	92.3% and 86.8%	–	–
MDA-MB-231 [2]	–	89% and 86.3%	–	–	79.1% and 103%	92.3% and 103%
MDA-MB-436	–	98.1% and 99.7%	–	–	85% and 101%	107% and 112%
MDA-MB-453	107% and 106%	–	89.3% and 94.9%	96.6% and 103%	–	–
MDA-MB-468	–	103% and 111%	–	–	105% and 99.7%	93.5% and 106%
MFM-223 [1]	–	87.7% and 85.8%	–	–	90.2% and 96.7%	100% and 104%
SK-BR-3 [6]	–	104% and 93.7%	–	–	94.7% and 95.1%	86.8% and 101%

Settings	normalised viability
CAL-51 [11]	104% and 105%
CAL-120 [15]	76.8% and 81.8%
DU-4475 [12]	99% and 102%
HCC1143 [16]	85.5% and 80.6%
HDQ-P1 [13]	86.6% and 103%
Hs578T	97.1% and 106%
MDA-MB-231 [10]	85.2% and 82.6%
MFM-223 [9]	89.4% and 94.1%
SK-BR-3 [14]	94.7% and 87.4%
